Assay results reported in the NIST ThermoML archive (doi:10.1016/j.fluid.2017.06.022).

Test: xn = mol fraction of the nth substance listed
Conditions: Liquid, Bellows volumetry

C=CC [propene] + Cc1ccccc1
Conditions	mass density [kg/m3]
422.8 K, 6300 kPa, x1 = 0.7612	383
422.8 K, 6800 kPa, x1 = 0.7612	392.4
422.8 K, 7500 kPa, x1 = 0.7612	405.5
422.8 K, 8900 kPa, x1 = 0.7612	424.5
422.8 K, 10600 kPa, x1 = 0.7612	441.8
422.8 K, 15400 kPa, x1 = 0.7612	476.7
422.8 K, 17400 kPa, x1 = 0.7612	484.1
422.8 K, 24400 kPa, x1 = 0.7612	508.8
422.8 K, 31000 kPa, x1 = 0.7612	527.4
422.8 K, 37800 kPa, x1 = 0.7612	543.1
422.8 K, 44900 kPa, x1 = 0.7612	556.7
422.8 K, 51600 kPa, x1 = 0.7612	566.8
422.8 K, 58200 kPa, x1 = 0.7612	576.2
422.8 K, 63200 kPa, x1 = 0.7612	583.4
422.8 K, 67200 kPa, x1 = 0.7612	588.5
424 K, 4500 kPa, x1 = 0.53	514
424 K, 4800 kPa, x1 = 0.53	516.1
424 K, 5300 kPa, x1 = 0.53	519
424 K, 5900 kPa, x1 = 0.53	522.7
424 K, 7100 kPa, x1 = 0.53	529
424 K, 8700 kPa, x1 = 0.53	535.9
424 K, 10400 kPa, x1 = 0.53	543
424 K, 17000 kPa, x1 = 0.53	563.7
424 K, 24000 kPa, x1 = 0.53	581.4
424 K, 30500 kPa, x1 = 0.53	594.5
425.2 K, 1300 kPa, x1 = 0.1159	668.8
425.2 K, 1600 kPa, x1 = 0.1159	669.7
425.2 K, 2200 kPa, x1 = 0.1159	671
425.2 K, 3200 kPa, x1 = 0.1159	673.2
425.2 K, 5400 kPa, x1 = 0.1159	678.2
425.2 K, 7000 kPa, x1 = 0.1159	681.3
425.2 K, 10300 kPa, x1 = 0.1159	688.2
425.2 K, 17100 kPa, x1 = 0.1159	700.5
425.2 K, 24000 kPa, x1 = 0.1159	712.3
425.2 K, 30700 kPa, x1 = 0.1159	721.9
425.2 K, 37600 kPa, x1 = 0.1159	730.7
425.2 K, 44700 kPa, x1 = 0.1159	738.6
425.2 K, 51400 kPa, x1 = 0.1159	745.7
425.2 K, 58400 kPa, x1 = 0.1159	752.3
425.2 K, 63100 kPa, x1 = 0.1159	756.7
425.2 K, 67000 kPa, x1 = 0.1159	760.1
474.3 K, 2200 kPa, x1 = 0.1159	604.5
474.3 K, 2900 kPa, x1 = 0.1159	607.4
474.3 K, 3700 kPa, x1 = 0.1159	610.3
474.3 K, 5300 kPa, x1 = 0.1159	616.2
474.3 K, 7200 kPa, x1 = 0.1159	622.2
474.3 K, 10500 kPa, x1 = 0.1159	632.3
474.3 K, 13900 kPa, x1 = 0.1159	641.4
474.3 K, 17400 kPa, x1 = 0.1159	650.5
474.3 K, 20400 kPa, x1 = 0.1159	657.2
474.3 K, 23700 kPa, x1 = 0.1159	664.4
474.3 K, 31100 kPa, x1 = 0.1159	678.2
474.3 K, 37400 kPa, x1 = 0.1159	688.7
474.3 K, 38000 kPa, x1 = 0.1159	689.6
474.3 K, 44800 kPa, x1 = 0.1159	700.1
474.3 K, 51300 kPa, x1 = 0.1159	708.8
474.4 K, 6700 kPa, x1 = 0.53	412.3
474.4 K, 7200 kPa, x1 = 0.53	423.9
474.4 K, 8100 kPa, x1 = 0.53	437.9
474.4 K, 9200 kPa, x1 = 0.53	450.2
474.4 K, 10700 kPa, x1 = 0.53	464.3
474.4 K, 13800 kPa, x1 = 0.53	487.2
474.4 K, 18000 kPa, x1 = 0.53	509
474.4 K, 23800 kPa, x1 = 0.53	531.7
474.4 K, 31300 kPa, x1 = 0.53	551.8
474.4 K, 37900 kPa, x1 = 0.53	566.1
474.4 K, 44400 kPa, x1 = 0.53	579
474.4 K, 51500 kPa, x1 = 0.53	591.3
474.4 K, 58400 kPa, x1 = 0.53	602.1
474.4 K, 63100 kPa, x1 = 0.53	608.9
474.4 K, 67200 kPa, x1 = 0.53	614.2
474.8 K, 7900 kPa, x1 = 0.7612	213.2
474.8 K, 8500 kPa, x1 = 0.7612	232.7
474.8 K, 9100 kPa, x1 = 0.7612	257.3
474.8 K, 9800 kPa, x1 = 0.7612	279.8
474.8 K, 10600 kPa, x1 = 0.7612	304.4
474.8 K, 11700 kPa, x1 = 0.7612	333.8
474.8 K, 12100 kPa, x1 = 0.7612	337.7
474.8 K, 14600 kPa, x1 = 0.7612	374.6
474.8 K, 17400 kPa, x1 = 0.7612	402.7
474.8 K, 24200 kPa, x1 = 0.7612	442.3
474.8 K, 31800 kPa, x1 = 0.7612	475
474.8 K, 37900 kPa, x1 = 0.7612	493.8
474.8 K, 44600 kPa, x1 = 0.7612	511.3
474.8 K, 51500 kPa, x1 = 0.7612	527.1
474.8 K, 58300 kPa, x1 = 0.7612	540
474.8 K, 63100 kPa, x1 = 0.7612	547.8
474.8 K, 67300 kPa, x1 = 0.7612	553.9
505.4 K, 7200 kPa, x1 = 0.53	291.1
505.4 K, 7700 kPa, x1 = 0.53	316.5
505.4 K, 8000 kPa, x1 = 0.53	328
505.4 K, 8700 kPa, x1 = 0.53	355.4
505.4 K, 9500 kPa, x1 = 0.53	376.8
505.4 K, 10600 kPa, x1 = 0.53	396.8
505.4 K, 13800 kPa, x1 = 0.53	435.7
505.4 K, 17400 kPa, x1 = 0.53	462.3
505.4 K, 24200 kPa, x1 = 0.53	495.4
505.4 K, 31500 kPa, x1 = 0.53	523.8
505.4 K, 37900 kPa, x1 = 0.53	540.2
505.4 K, 44600 kPa, x1 = 0.53	554.8
505.4 K, 51400 kPa, x1 = 0.53	568
505.4 K, 58400 kPa, x1 = 0.53	579.6
505.4 K, 62900 kPa, x1 = 0.53	587.4
505.4 K, 66800 kPa, x1 = 0.53	592.6
554.4 K, 4700 kPa, x1 = 0.1159	442.2
554.4 K, 5300 kPa, x1 = 0.1159	460
554.4 K, 6000 kPa, x1 = 0.1159	475.7
554.4 K, 6600 kPa, x1 = 0.1159	486
554.4 K, 7200 kPa, x1 = 0.1159	493.7
554.4 K, 9400 kPa, x1 = 0.1159	515.7
554.4 K, 10800 kPa, x1 = 0.1159	526.4
554.4 K, 17800 kPa, x1 = 0.1159	567.8
554.4 K, 24100 kPa, x1 = 0.1159	591.2
554.4 K, 30900 kPa, x1 = 0.1159	610.7
554.4 K, 37900 kPa, x1 = 0.1159	626.5
554.4 K, 44500 kPa, x1 = 0.1159	640.2
554.4 K, 51800 kPa, x1 = 0.1159	653
554.4 K, 58200 kPa, x1 = 0.1159	663.6
554.4 K, 63300 kPa, x1 = 0.1159	671.5
554.4 K, 67100 kPa, x1 = 0.1159	676.8
